Test results as given in patent publication US9999619B2, “Piperidin-4-yl azetidine derivatives as JAK1 inhibitors” (Incyte Corporation, priority 2010, dated 2018).

What was measured:
Format in all cases: biochemical
[1] = target: human JAK1 (a.a. 837-1142) (Homo sapiens, UniProt P23458); assay: In vitro JAK kinase assay (HTRF, phosphorylation of a biotinylated peptide), JAK1; details: measured at 1 mM ATP
Protocol: (§1) Compounds herein were tested for inhibitory activity of JAK targets according to the following in vitro assay described in Park et al., Analytical Biochemistry 1999, 269, 94-104. The catalytic domains of human JAK1 (a.a. 837-1142), Jak2 (a.a. 828-1132) and Jak3 (a.a. 781-1124) with an N-terminal His tag were expressed using baculovirus in insect cells and purified. The catalytic activity of JAK1, JAK2 or JAK3 was assayed by measuring the phosphorylation of a biotinylated peptide. The phosphorylated peptide was detected by homogenous time resolved fluorescence (HTRF). […] Reactions were carried out at room temperature for 1 hr and then stopped with 20 μL 45 mM EDTA, 300 nM SA-APC, 6 nM Eu-Py20 in assay buffer (Perkin Elmer, Boston, Mass.). Binding to the Europium labeled antibody took place for 40 minutes and HTRF signal was measured on a Fusion plate reader (Perkin Elmer, Boston, Mass.).

[2] = target: human JAK1 (a.a. 837-1142); assay: as above; details: ratio of JAK2 IC50 to JAK1 IC50, measured at 1 mM ATP
Protocol: as §1

Jak2 (a.a. 828-1132) = Jak2 (a.a. 828-1132) (Homo sapiens (Human), UniProt O60674); assay: In vitro JAK kinase assay (HTRF, phosphorylation of a biotinylated peptide), JAK2; details: measured at 1 mM ATP
Chain of Jak2 (a.a. 828-1132) (O60674 828-1132): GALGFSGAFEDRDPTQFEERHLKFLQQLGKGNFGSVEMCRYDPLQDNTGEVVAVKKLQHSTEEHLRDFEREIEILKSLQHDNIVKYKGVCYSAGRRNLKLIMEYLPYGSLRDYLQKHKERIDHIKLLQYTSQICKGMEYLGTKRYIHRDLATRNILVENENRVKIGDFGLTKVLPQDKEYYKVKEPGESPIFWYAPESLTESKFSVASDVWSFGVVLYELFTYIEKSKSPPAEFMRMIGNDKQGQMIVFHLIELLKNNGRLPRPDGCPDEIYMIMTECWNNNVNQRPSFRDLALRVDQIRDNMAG
Protocol: as §1

Row | SMILES | IC50 [1] | IC50 Ratio JAK2/JAK1 [2] | IC50 (Jak2 (a.a. 828-1132))
1 | N#CCC1(n2cc(-c3ncnc4[nH]ccc34)cn2)CN(C2CCN(C(=O)c3ccccc3C#N)CC2)C1 [Example 10, 2-[(4-{3-(cyanomethyl)-3-[4-(7H-pyrrolo[2,3-d]pyrimidin-4-yl)-1H-pyrazol-1-yl]azetidin-1-yl}piperidin-1-yl)carbonyl]benzonitrile] | 5 to 20 nM | 4.4 | 10 to 50 nM
2 | N#CCC1(n2cc(-c3ncnc4[nH]ccc34)cn2)CN(C2CCN(C(=O)c3cccc(C#N)c3)CC2)C1 [Example 11, 3-[(4-{3-(cyanomethyl)-3-[4-(7H-pyrrolo[2,3-d]pyrimidin-4-yl)-1H-pyrazol-1-yl]azetidin-1-yl}piperidin-1-yl)carbonyl]benzonitrile] | 5 to 20 nM | 7.2 | 10 to 50 nM
3 | N#CCC1(n2cc(-c3ncnc4[nH]ccc34)cn2)CN(C2CCN(C(=O)c3ccc(C#N)cc3)CC2)C1 [Example 12, 4-[(4-{3-(cyanomethyl)-3-[4-(7H-pyrrolo[2,3-d]pyrimidin-4-yl)-1H-pyrazol-1-yl]azetidin-1-yl}piperidin-1-yl)carbonyl]benzonitrile] | 20 to 30 nM | 5.2 | > 100 nM
4 | N#CCC1(n2cc(-c3ncnc4[nH]ccc34)cn2)CN(C2CCN(C(=O)c3cccc(Cl)n3)CC2)C1 [Example 13, {1-{1-[(6-chloropyridin-2-yl)carbonyl]piperidin-4-yl}-3-[4-(7H-pyrrolo[2,3-d]pyrimidin-4-yl)-1H-pyrazol-1-yl]azetidin-3-yl}acetonitrile] | ≤ 5 nM | 5.3 | 10 to 50 nM
5 | N#CCC1(n2cc(-c3ncnc4[nH]ccc34)cn2)CN(C2CCN(C(=O)c3cnccn3)CC2)C1 [Example 14, {1-[1-(pyrazin-2-lcarbonyl)piperidin-4-yl]-3-[4-(7H-pyrrolo[2,3-d]pyrimidin-4-yl)-1H-pyrazol-1-yl]azetidin-3-l}acetonitrile] | 5 to 20 nM | 3.2 | 10 to 50 nM
6 | N#CCC1(n2cc(-c3ncnc4[nH]ccc34)cn2)CN(C2CCN(C(=O)c3ccsc3)CC2)C1 [Example 15, {3-[4-(7H-pyrrolo[2,3-d]pyrimidin-4-yl)-1H-pyrazol-1-yl]-1-[1-(3-thienylcarbonyl)piperidin-4-yl]azetidin-3-yl}acetonitrile] | 5 to 20 nM | 5.3 | 10 to 50 nM
7 | N#CCC1(n2cc(-c3ncnc4[nH]ccc34)cn2)CN(C2CCN(C(=O)c3ncco3)CC2)C1 [Example 16, {1-[1-(1,3-oxazol-2-ylcarbonyl)piperidin-4-yl]-3-[4-(7H-pyrrolo[2,3-d]pyrimidin-4-yl)-1H-pyrazol-1-yl]azetidin-3-yl}acetonitrile] | 5 to 20 nM | 2.5 | 10 to 50 nM
8 | N#CCC1(n2cc(-c3ncnc4[nH]ccc34)cn2)CN(C2CCN(C(=O)c3cccc(Br)c3)CC2)C1 [Example 20, {1-[1-(3-bromobenzoyl)piperidin-4-yl]-3-[4-(7H-pyrrolo[2,3-d]pyrimidin-4-yl)-1H-pyrazol-1-yl]azetidin-3-yl}acetonitrile] | ≤ 5 nM | 4.2 | ≤ 10 nM
9 | N#CCC1(n2cc(-c3ncnc4[nH]ccc34)cn2)CN(C2CCN(C(=O)c3cccc(OC(F)(F)F)c3)CC2)C1 [Example 21, (3-[4-(7H-pyrrolo[2,3-d]pyrimidin-4-yl)-1H-pyrazol-1-yl]-1-{1-[3-(trifluoromethoxy)benzoyl]piperidin-4-yl}azetidin-3-yl)acetonitrile] | 5 to 20 nM | 3.2 | 10 to 50 nM
10 | N#CCC1(n2cc(-c3ncnc4[nH]ccc34)cn2)CN(C2CCN(C(=O)c3cccc(C(F)(F)F)c3)CC2)C1 [Example 22, (3-[4-(7H-pyrrolo[2,3-d]pyrimidin-4-yl)-1H-pyrazol-1-yl]-1-{1-[3-(trifluoromethyl)benzoyl]piperidin-4-yl}azetidin-3-yl)acetonitrile] | 5 to 20 nM | 3.2 | 10 to 50 nM
11 | N#CCC1(n2cc(-c3ncnc4[nH]ccc34)cn2)CN(C2CCN(C(=O)c3cc(F)cc(C(F)(F)F)c3)CC2)C1 [Example 23, {1-{1-[3-fluoro-5-(trifluoromethyl)benzoyl]piperidin-4-yl}-3-[4-(7H-pyrrolo[2,3-d]pyrimidin-4-yl)-1H-pyrazol-1-yl]azetidin-3-yl}acetonitrile] | ≤ 5 nM | 6.7 | 10 to 50 nM
12 | N#CCC1(n2cc(-c3ncnc4[nH]ccc34)cn2)CN(C2CCN(C(=O)c3cc(Cl)cc(Cl)c3)CC2)C1 [Example 24, {1-[1-(3,5-dichlorobenzoyl)piperidin-4-yl]-3-[4-(7H-pyrrolo[2,3-d]pyrimidin-4-yl)-1H-pyrazol-1-yl]azetidin-3-yl}acetonitrile] | ≤ 5 nM | 6.6 | ≤ 10 nM
13 | N#CCC1(n2cc(-c3ncnc4[nH]ccc34)cn2)CN(C2CCN(C(=O)c3cccc(F)c3)CC2)C1 [Example 25, {1-[1-(3-fluorobenzoyl)piperidin-4-yl]-3-[4-(7H-pyrrolo[2,3-d]pyrimidin-4-yl)-1H-pyrazol-1-yl]azetidin-3-yl}acetonitrile] | ≤ 5 nM | 5.8 | 10 to 50 nM
14 | COc1cc(C(=O)N2CCC(N3CC(CC#N)(n4cc(-c5ncnc6[nH]ccc56)cn4)C3)CC2)ccc1F [Example 26, {1-[1-(4-fluoro-3-methoxybenzoyl)piperidin-4-yl]-3-[4-(7H-pyrrolo[2,3-d]pyrimidin-4-yl)-1H-pyrazol-1-yl]azetidin-3-yl}acetonitrile] | ≤ 5 nM | 3.3 | ≤ 10 nM
15 | COc1ccc(F)c(C(=O)N2CCC(N3CC(CC#N)(n4cc(-c5ncnc6[nH]ccc56)cn4)C3)CC2)c1 [Example 27, {1-[1-(2-fluoro-5-methoxybenzoyl)piperidin-4-yl]-3-[4-(7H-pyrrolo[2,3-d]pyrimidin-4-yl)-1H-pyrazol-1-yl]azetidin-3-yl}acetonitrile] | 5 to 20 nM | 5.1 | 50 to 100 nM
16 | N#CCC1(n2cc(-c3ncnc4[nH]ccc34)cn2)CN(C2CCN(C(=O)c3cc(F)cc(Cl)c3)CC2)C1 [Example 28, {1-[1-(3-chloro-5-fluorobenzoyl)piperidin-4-yl]-3-[4-(7H-pyrrolo[2,3-d]pyrimidin-4-yl)-1H-pyrazol-1-yl]azetidin-3-yl}acetonitrile] | ≤ 5 nM | 8.5 | ≤ 10 nM
17 | N#CCC1(n2cc(-c3ncnc4[nH]ccc34)cn2)CN(C2CCN(C(=O)c3cc(F)cc(Br)c3)CC2)C1 [Example 29, {1-[1-(3-bromo-5-fluorobenzoyl)piperidin-4-yl]-3-[4-(7H-pyrrolo[2,3-d]pyrimidin-4-yl)-1H-pyrazol-1-yl]azetidin-3-yl}acetonitrile] | ≤ 5 nM | 7.2 | ≤ 10 nM
18 | N#CCC1(n2cc(-c3ncnc4[nH]ccc34)cn2)CN(C2CCN(C(=O)c3cc(Cl)sc3Cl)CC2)C1 [Example 30, {1-{1-[(2,5-dichloro-3-thienyl)carbonyl]piperidin-4-yl}-3-[4-(7H-pyrrolo[2,3-d]pyrimidin-4-yl)-1H-pyrazol-1-yl]azetidin-3-yl}acetonitrile] | ≤ 5 nM | 2.8 | ≤ 10 nM
